Laboratory results taken from patent publication US5332427A, “Wood preservatives” (priority 1991, dated 1994).

Assays:
[1] = system: Coriolus versicolor; assay: Mycelium growth inhibition on potato dextrose agar medium, Coriolus versicolor (Test Example 2); type: cell-based; settings: four days after inoculation
Procedure: (§1) Each of the test compounds shown in Tables 3 and 4 was dissolved in a definite amount of dimethylsulfoxide to prepare a 1% W/V solution. A definite amount of the resulting formulation was added to a potato dextrose agar medium just after sterilization (using a moist heat sterilizer) and about 20 cc of the mixture was poured into a Petri dish of 9 cm in diameter and the Petri dish was placed at room temperature. After the medium was solidified, mycelium from a colony of Coriolus versicolor or Tyromyces palustris cultured previously was punched with a cork borer of 5 mm in diameter and the mycelium was inoculated at the center of the test medium. Four days after the inoculation, the diameter of colony extended from the inoculation point was measured and the percentage of mycelium growth inhibition was calculated according to the following equation: [formula]

[2] = Discoloration (coloration) of oil formulation-coated filter paper under irradiation with light (Test Example 1); type: physicochemical; design: key: -: No discoloration (coloration); +: Slight discoloration (coloration); ++: Prominent discoloration (coloration); settings: 1% oil formulation, 100 ml per m^2 of filter paper, light of 6000-7000 lux for 5 minutes
Procedure: A 1% oil formulation of each of the test compounds shown in Table 2 was prepared according to Formulation Example 1. The oil formulation was coated on a filter paper having a diameter of 5.5 cm in an amount of 100 ml of the oil formulation per m^2 of the filter paper and the filter paper was air-dried. The filter paper thus prepared was subjected to irradiation with light of 6000-7000 lux for 5 minutes and then, taken out, after which the degree of discoloration (coloration) was observed. The degree of discoloration (coloration) was determined based on the following standard.
No discoloration (coloration): -
Slight discoloration (coloration): +
Prominent discoloration (coloration): ++

[3] = system: Tyromyces palustris; assay: Mycelium growth inhibition on potato dextrose agar medium, Tyromyces palustris (Test Example 2); type: cell-based; settings: four days after inoculation
Procedure: as §1

[4] = system: Tyromyces palustris; assay: Wood weight reduction after weather resistance operation, test method of Japan Wood Preservation Association, Tyromyces palustris/Japanese cedar (Test Example 3); settings: oil formulation, Japanese cedar, 30 weather resistance cycles, 8 weeks
Procedure: (§2) An oil formulation of each of the test compounds shown in Table 5 was prepared according to Formulation Example 1 and was tested based on the test method of Japan Wood Preservation Association. The summary of the test method is as follows:
(§3) The cut end surfaces of a wooden piece of Japanese beech or Japanese cedar (thickness: 5 mm, width: 20 mm, length: 40 mm; the surface of 40×20 mm is of straight grain) were sealed with an epoxy resin and the wooden piece was impregnated with the oil formulation (110±10 g/m^2 surface area), and thereafter air-dried for 20 days to prepare a test specimen. The test specimen was dipped in still water [water:wooden piece=10:1 (volume ratio)] at 25°±3° C. for 5 hours, and then the water was volatilized at 40±2° C. for 19 hours. This weather resistance operation was repeated 30 times. The test specimen after the weather resistance operation was dried at 60°±2° C. for 48 hours and then placed in a desicator for about 30 minutes, after which the weight (W3) of the test specimen was measured. The test described above was repeated for 9 wooden pieces. The test specimen was sterilized and then, placed in a culture vial in which wood rotting fungi (Coriolus versicolor/Japanese beech, Tyromyces palustris/Japanese cedar) were being cultured, in which cultivation was effected at 26°±2° C. at a humidity of 80% for 8 weeks. After 8 weeks, the test specimen was taken out of the culture vial and the mycelium and other extraneous matters were removed therefrom, after which the test specimen was dried at 60°±2° C. for 48 hours and placed in a desicator for about 30 minutes. Thereafter, the weight (W4) of the test specimen was measured. The weight reduction percentage was calculated according to the following equation: [formula]

[5] = system: Coriolus versicolor; assay: Wood weight reduction after weather resistance operation, test method of Japan Wood Preservation Association, Coriolus versicolor/Japanese beech (Test Example 3); settings: oil formulation, Japanese beech, 30 weather resistance cycles, 8 weeks
Procedure: as §2, §3

Compound | Percentage of growth inhibition for Coriolus versicolor ([1]; 1 ppm) [Percentage] | Percentage of growth inhibition for Coriolus versicolor ([1]; 2 ppm) [Percentage] | Percentage of growth inhibition for Coriolus versicolor ([1]; 4 ppm) [Percentage] | Degree of discoloration (coloration) [2] | Percentage of growth inhibition for Tyromyces palustris ([3]; 1 ppm) [Percentage] | Percentage of growth inhibition for Tyromyces palustris ([3]; 2 ppm) [Percentage] | Percentage of growth inhibition for Tyromyces palustris ([3]; 4 ppm) [Percentage] | Average weight reduction percentage ([4]; concentration 1.0%) [%] | Average weight reduction percentage ([5]; concentration 1.0%) [%] | Average weight reduction percentage ([4]; concentration 0.5%) [%] | Average weight reduction percentage ([5]; concentration 0.5%) [%]
CC(C)(C)C(O)/C(=C\c1ccc(Cl)cc1)n1cncn1 (single isomer, unassigned; (-)) [Compound (2), (-)-(E)-1-(4-chlorophenyl)-4,4-dimethyl-2-(1,2,4-triazol-1-yl)-1-penten-3-ol] | 85.3 | 87.2 | 93.9 | - | 94.6 | 98.8 | 100 |  |  |  | 
3-Iodo-2-propenylbutyl carbamate [Compound (B)] | 81.3 | 91.9 | 100 | + | 80.5 | 88.7 | 100 | 0.78 | 7.6 |  | 
CCOC(=O)OCC(I)=C(Br)I [Compound (A), 3-Bromo-2,3-diiodo-2-propenylethyl carbonate] | 20.0 | 41.7 | 72.8 |  | 26.6 | 43.0 | 63.3 | 3.1 | 3.9 |  | 
CC(C)(C)C(O)/C(=C\c1ccc(Cl)cc1Cl)n1cncn1 (single isomer, unassigned; (-)) [Compound (1), (-)-(E)-1-(2,4-dichlorophenyl)-4,4-dimethyl-2-(1,2,4-triazol-1-yl)-1-penten-3-ol] | 86.1 | 93.9 | 98.3 | - | 79.1 | 93.0 | 95.6 | 0.19 | 0.64 | 0.25 | 0.70
Clc1ccc(OCOCC#CI)cc1 [Compound (C), 4-Chlorophenyl-3-iodopropargyl formal] | 68.2 | 88.7 | 97.9 | ++ | 77.0 | 98.6 | 100 | 0.34 | 1.1 |  | 
